{"source": "patent US8481789B2", "about": "“Method for producing natural 9-decen-2-one by bioconverting undecylenic acid using a mold, and use in the perfume and food flavoring fields” (priority 2008, dated 2013)", "key": {"[1]": {"tested_on": "rabbits", "test": "Acute dermal irritation (OECD guideline No. 404, method B.4)", "type": "in vivo, rabbit", "settings": "3 rabbits", "procedure": "The molecule was tested on 3 rabbits according to the experimental protocol established by “the OECD guideline No. 404 dated Apr. 24, 2002” and the test “method B.4 of the Directive No. 2004/73/EC): Acute dermal irritation”.\nIt emerges therefrom that 9-decen-2-one is not irritant and that no hazard symbol or phrases are required for its use (according to the “EEC Directives 67/548/59 and 99/45”)."}, "[2]": {"tested_on": "rabbits", "test": "Acute eye irritation (OECD guideline No. 405, method B.5)", "type": "in vivo, rabbit", "settings": "3 rabbits", "procedure": "Similarly, the molecule was tested on 3 rabbits according to the experimental protocol established by “the OECD guideline No. 405 dated Apr. 24, 2002” and the test “method B.5 of the Directive No. 2004/73/EC): Acute eye irritation”.\nIt also emerges therefrom that 9-decen-2-one is not irritant and that no hazard symbol or phrases are required for its use (according to the “EEC Directives 67/548/59 and 99/45”)."}, "[3]": {"test": "LD50 test (acute oral toxicity)", "settings": "in vivo"}}, "data": [{"smiles": "C=CCCCCCCC(C)=O", "note": "[9-decen-2-one]", "values": [{"measurement": "Acute dermal irritation", "setting": "[1]", "value": "not irritant"}, {"measurement": "Acute eye irritation", "setting": "[2]", "value": "not irritant"}, {"measurement": "LD50", "setting": "[3]", "value": 2500, "unit": "mg/kg"}]}]}
